# Biological target: T1, cannabinoid receptor 1 (CB1R, hCB1R) (Homo sapiens, UniProt P21554)
# T1 construct: gene CNR1; purified human CB1R (hCB1R) protein that is close to its full-length (473 amino acids)
# Assay: biochemical
# Assay type: binding
# T1 sequence (P21554 whole entry): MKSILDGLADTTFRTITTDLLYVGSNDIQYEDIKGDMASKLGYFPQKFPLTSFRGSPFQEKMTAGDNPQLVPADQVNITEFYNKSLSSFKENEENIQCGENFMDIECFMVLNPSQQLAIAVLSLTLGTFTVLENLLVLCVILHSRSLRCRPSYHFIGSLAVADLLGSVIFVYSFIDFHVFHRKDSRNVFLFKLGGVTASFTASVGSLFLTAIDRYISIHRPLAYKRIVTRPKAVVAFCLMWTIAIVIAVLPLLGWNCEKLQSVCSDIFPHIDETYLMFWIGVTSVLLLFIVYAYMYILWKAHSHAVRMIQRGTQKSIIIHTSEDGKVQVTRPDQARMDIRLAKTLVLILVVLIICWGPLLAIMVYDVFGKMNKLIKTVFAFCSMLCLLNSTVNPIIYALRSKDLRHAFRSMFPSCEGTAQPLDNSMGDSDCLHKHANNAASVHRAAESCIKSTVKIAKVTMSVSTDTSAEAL
row,Structure (SMILES),Kd [nM]
1,"CN1CCN(C2=Nc3cc(Cl)ccc3Nc3ccccc32)CC1 [Clz, clozapine]",2.65
2,"Cc1cc2c(s1)Nc1ccccc1N=C2N1CCN(C)CC1 [Olz, olanzapine]",2.53

# From PMC9225989 (Signal Transduction and Targeted Therapy, 2022)
